According to patent US6896895B2, “Carotenoid esters, carotenoid-enriched feeds, and methods of pigmenting foods and foodstuffs” (DSM IP Assets B.V., priority 2000, dated 2005):

Tests used:
[1] = Carotenoid ester content in plasma, back skin and abdominal fat of broilers (HPLC); format: in vivo, broiler chickens (Ross 308, Ross 508)
Method in brief: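 Ross 308/508 broilers, raised on low-carotenoid basal diet (<2 mg xanthophylls/kg) to day 15 or 22, then fed pigment-supplemented diet for three weeks; plasma sampled day 42, back skin and abdominal fat pooled per group at slaughter on day 44. Carotenoid esters quantified by normal-phase HPLC (0.5% acetone in n-hexane) calibrated with all-E ethyl β-apo-8′-carotenoate; Z-isomers corrected by factor 1.4.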

[2] = test system: skin and shanks of broilers; experiment: Reflectance colorimetry and visual classification of skin and shanks of broilers; format: in vivo, broiler chickens (Ross 308, Ross 508); set-up: key to Shanks Visual Classification / Skin Visual Classification: −; (+); +; ++ = good color; o = orange; details: for Shanks Chroma C*ab % of Controls / Shanks Color Hue h*ab % of Controls / Skin Chroma C*ab % of Controls / Skin Color Hue h*ab % of Controls / Shanks Chroma C*ab Value / Shanks Color Hue h*ab Value / Shanks Visual Classification / Skin Chroma C*ab Value / Skin Color Hue h*ab Value / Skin Visual Classification: dry carcasses
Method in brief: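 Ross broilers were fed a low-carotenoid basal diet (<2 mg xanthophylls/kg), then received pigment-supplemented diet for three weeks and were slaughtered on day 44. Back-skin colour (mean of three points) and shank colour (single reading) were measured by Minolta chromameter (D65, 0°) and reported as CIE L*a*b*, h* and C*, averaged over ten birds (5 male, 5 female).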

[3] = average over doses, in relation to the controls (CAROPHYLL Yellow) of the same trial, Table 3
[4] = trial MC-11/99, 8.88 mg/kg feed
[5] = trial MC-11/99, 13.33 mg/kg feed

Question: Which “Analytical Content as Equivalent of Ethyl β-apo-8′-carotenoate Fat %” value [1, 3] does the source give for CC1=C(/C=C/C(C)=C/C=C/C(C)=C/C=C/C=C(C)/C=C/C=C(\C)C(=O)OC(C)C)C(C)(C)CCC1 [compound (17), isopropyl beta-apo-8′-carotenoate] here?
Answer: 88%

Question: What about the “Analytical Content as Equivalent of Ethyl β-apo-8′-carotenoate Plasma %” value [1, 3] of the same compound?
Answer: 129%

Question: And the “Analytical Content as Equivalent of Ethyl β-apo-8′-carotenoate Skin %” value [1, 3]?
Answer: 134%

Question: And the “concentrations determined as equivalents of the ethyl β-apo-8′-carotenoate, in the skin” value ([1]; in comparison to the other 12 tested carotenoid esters)?
Answer: substantially higher

Question: And the “Analytical Content as Equivalent of Ethyl β-apo-8′-carotenoate Fat” value ([1]; trial MC-02/99, 10 mg/kg feed)?
Answer: 1.8 mg/kg

Question: And the “Analytical Content as Equivalent of Ethyl β-apo-8′-carotenoate Plasma” value ([1]; trial MC-02/99, 10 mg/kg feed)?
Answer: 6.3 mg/kg

Question: What about the “Analytical Content as Equivalent of Ethyl β-apo-8′-carotenoate Skin” value ([1]; trial MC-02/99, 10 mg/kg feed) of the same compound?
Answer: 2.0 mg/kg

Question: What about the “Analytical Content as Equivalent of Ethyl β-apo-8′-carotenoate Fat” value ([1]; trial MC-02/99, 20 mg/kg feed) of the same compound?
Answer: 3.3 mg/kg

Question: And the “Analytical Content as Equivalent of Ethyl β-apo-8′-carotenoate Plasma” value ([1]; trial MC-02/99, 20 mg/kg feed)?
Answer: 13.4 mg/kg

Question: What about the “Analytical Content as Equivalent of Ethyl β-apo-8′-carotenoate Skin” value ([1]; trial MC-02/99, 20 mg/kg feed) of the same compound?
Answer: 4.1 mg/kg

Question: And the “Analytical Content as Equivalent of Ethyl β-apo-8′-carotenoate Fat” value [1, 4]?
Answer: 1.2 mg/kg

Question: What about the “Analytical Content as Equivalent of Ethyl β-apo-8′-carotenoate Plasma” value [1, 4] of the same compound?
Answer: 6.0 mg/kg

Question: And the “Analytical Content as Equivalent of Ethyl β-apo-8′-carotenoate Skin” value [1, 4]?
Answer: 1.6 mg/kg

Question: And the “Analytical Content as Equivalent of Ethyl β-apo-8′-carotenoate Fat” value [1, 5]?
Answer: 1.9 mg/kg

Question: What about the “Analytical Content as Equivalent of Ethyl β-apo-8′-carotenoate Plasma” value [1, 5] of the same compound?
Answer: 8.6 mg/kg

Question: And the “Analytical Content as Equivalent of Ethyl β-apo-8′-carotenoate Skin” value [1, 5]?
Answer: 2.6 mg/kg

Question: And the “Analytical Content as Equivalent of Ethyl β-apo-8′-carotenoate Fat” value ([1]; trial MC-11/99, 20 mg/kg feed)?
Answer: 2.9 mg/kg

Question: What about the “Analytical Content as Equivalent of Ethyl β-apo-8′-carotenoate Plasma” value ([1]; trial MC-11/99, 20 mg/kg feed) of the same compound?
Answer: 13.3 mg/kg

Question: And the “Analytical Content as Equivalent of Ethyl β-apo-8′-carotenoate Skin” value ([1]; trial MC-11/99, 20 mg/kg feed)?
Answer: 3.7 mg/kg

Question: What about the “Analytical Content as Equivalent of Ethyl β-apo-8′-carotenoate Fat” value ([1]; trial MC-11/99, 30 mg/kg feed) of the same compound?
Answer: 3.4 mg/kg

Question: What about the “Analytical Content as Equivalent of Ethyl β-apo-8′-carotenoate Plasma” value ([1]; trial MC-11/99, 30 mg/kg feed) of the same compound?
Answer: 18.3 mg/kg

Question: What about the “Analytical Content as Equivalent of Ethyl β-apo-8′-carotenoate Skin” value ([1]; trial MC-11/99, 30 mg/kg feed) of the same compound?
Answer: 6.1 mg/kg

Question: And the “Analytical Content as Equivalent of Ethyl β-apo-8′-carotenoate Fat” value ([1]; trial MC-11/99, 45 mg/kg feed)?
Answer: 6.4 mg/kg

Question: And the “Analytical Content as Equivalent of Ethyl β-apo-8′-carotenoate Plasma” value ([1]; trial MC-11/99, 45 mg/kg feed)?
Answer: 30.6 mg/kg

Question: What about the “Analytical Content as Equivalent of Ethyl β-apo-8′-carotenoate Skin” value ([1]; trial MC-11/99, 45 mg/kg feed) of the same compound?
Answer: 9.0 mg/kg

Question: What about the “Analytical Content as Equivalent of Ethyl β-apo-8′-carotenoate Fat” value ([1]; trial MC-24/98, 15 mg/kg feed) of the same compound?
Answer: 2.3 mg/kg

Question: And the “Analytical Content as Equivalent of Ethyl β-apo-8′-carotenoate Plasma” value ([1]; trial MC-24/98, 15 mg/kg feed)?
Answer: 10.0 mg/kg

Question: And the “Analytical Content as Equivalent of Ethyl β-apo-8′-carotenoate Skin” value ([1]; trial MC-24/98, 15 mg/kg feed)?
Answer: 2.5 mg/kg

Question: What about the “Analytical Content as Equivalent of Ethyl β-apo-8′-carotenoate Fat” value ([1]; trial MC-24/98, 30 mg/kg feed) of the same compound?
Answer: 4.5 mg/kg

Question: And the “Analytical Content as Equivalent of Ethyl β-apo-8′-carotenoate Plasma” value ([1]; trial MC-24/98, 30 mg/kg feed)?
Answer: 19.9 mg/kg

Question: What about the “Analytical Content as Equivalent of Ethyl β-apo-8′-carotenoate Skin” value ([1]; trial MC-24/98, 30 mg/kg feed) of the same compound?
Answer: 5.6 mg/kg

Question: And the “Shanks Chroma C*ab % of Controls” value ([2]; average over doses, Table 5)?
Answer: 115%

Question: What about the “Shanks Color Hue h*ab % of Controls” value ([2]; average over doses, Table 5) of the same compound?
Answer: 99%

Question: What about the “Skin Chroma C*ab % of Controls” value ([2]; average over doses, Table 5) of the same compound?
Answer: 113%

Question: And the “Skin Color Hue h*ab % of Controls” value ([2]; average over doses, Table 5)?
Answer: 102%

Question: And the “Shanks Chroma C*ab % of Controls” value [2, 5]?
Answer: 97%

Question: What about the “Shanks Chroma C*ab Value” [2, 5] of the same compound?
Answer: 70

Question: And the “Shanks Color Hue h*ab % of Controls” value [2, 5]?
Answer: 99%

Question: And the “Shanks Color Hue h*ab Value” [2, 5]?
Answer: 84

Question: And the “Shanks Visual Classification” value [2, 5]?
Answer: (+)

Question: What about the “Skin Chroma C*ab % of Controls” value [2, 5] of the same compound?
Answer: 116%

Question: And the “Skin Chroma C*ab Value” [2, 5]?
Answer: 29

Question: And the “Skin Color Hue h*ab % of Controls” value [2, 5]?
Answer: 105%

Question: And the “Skin Color Hue h*ab Value” [2, 5]?
Answer: 77

Question: What about the “Skin Visual Classification” value [2, 5] of the same compound?
Answer: (+)

Question: What about the “Shanks Chroma C*ab % of Controls” value ([2]; trial MC-11/99, 20 mg/kg feed) of the same compound?
Answer: 125%

Question: And the “Shanks Chroma C*ab Value” ([2]; trial MC-11/99, 20 mg/kg feed)?
Answer: 59

Question: And the “Shanks Color Hue h*ab % of Controls” value ([2]; trial MC-11/99, 20 mg/kg feed)?
Answer: 103%

Question: And the “Shanks Color Hue h*ab Value” ([2]; trial MC-11/99, 20 mg/kg feed)?
Answer: 87

Question: What about the “Shanks Visual Classification” value ([2]; trial MC-11/99, 20 mg/kg feed) of the same compound?
Answer: +

Question: And the “Skin Chroma C*ab % of Controls” value ([2]; trial MC-11/99, 20 mg/kg feed)?
Answer: 106%

Question: What about the “Skin Chroma C*ab Value” ([2]; trial MC-11/99, 20 mg/kg feed) of the same compound?
Answer: 33

Question: What about the “Skin Color Hue h*ab % of Controls” value ([2]; trial MC-11/99, 20 mg/kg feed) of the same compound?
Answer: 100%

Question: What about the “Skin Color Hue h*ab Value” ([2]; trial MC-11/99, 20 mg/kg feed) of the same compound?
Answer: 78

Question: And the “Skin Visual Classification” value ([2]; trial MC-11/99, 20 mg/kg feed)?
Answer: +

Question: And the “Shanks Chroma C*ab % of Controls” value ([2]; trial MC-11/99, 30 mg/kg feed)?
Answer: 108%

Question: What about the “Shanks Chroma C*ab Value” ([2]; trial MC-11/99, 30 mg/kg feed) of the same compound?
Answer: 65

Question: And the “Shanks Color Hue h*ab % of Controls” value ([2]; trial MC-11/99, 30 mg/kg feed)?
Answer: 97%

Question: And the “Shanks Color Hue h*ab Value” ([2]; trial MC-11/99, 30 mg/kg feed)?
Answer: 83

Question: What about the “Shanks Visual Classification” value ([2]; trial MC-11/99, 30 mg/kg feed) of the same compound?
Answer: +

Question: And the “Skin Chroma C*ab % of Controls” value ([2]; trial MC-11/99, 30 mg/kg feed)?
Answer: 119%

Question: And the “Skin Chroma C*ab Value” ([2]; trial MC-11/99, 30 mg/kg feed)?
Answer: 40

Question: And the “Skin Color Hue h*ab % of Controls” value ([2]; trial MC-11/99, 30 mg/kg feed)?
Answer: 102%

Question: And the “Skin Color Hue h*ab Value” ([2]; trial MC-11/99, 30 mg/kg feed)?
Answer: 79

Question: What about the “Skin Visual Classification” value ([2]; trial MC-11/99, 30 mg/kg feed) of the same compound?
Answer: +

Question: What about the “Shanks Chroma C*ab % of Controls” value ([2]; trial MC-11/99, 45 mg/kg feed) of the same compound?
Answer: 108%

Question: What about the “Shanks Chroma C*ab Value” ([2]; trial MC-11/99, 45 mg/kg feed) of the same compound?
Answer: 71

Question: What about the “Shanks Color Hue h*ab % of Controls” value ([2]; trial MC-11/99, 45 mg/kg feed) of the same compound?
Answer: 101%

Question: And the “Shanks Color Hue h*ab Value” ([2]; trial MC-11/99, 45 mg/kg feed)?
Answer: 84

Question: And the “Shanks Visual Classification” value ([2]; trial MC-11/99, 45 mg/kg feed)?
Answer: ++(o)

Question: And the “Skin Chroma C*ab % of Controls” value ([2]; trial MC-11/99, 45 mg/kg feed)?
Answer: 105%

Question: And the “Skin Chroma C*ab Value” ([2]; trial MC-11/99, 45 mg/kg feed)?
Answer: 44

Question: What about the “Skin Color Hue h*ab % of Controls” value ([2]; trial MC-11/99, 45 mg/kg feed) of the same compound?
Answer: 103%

Question: What about the “Skin Color Hue h*ab Value” ([2]; trial MC-11/99, 45 mg/kg feed) of the same compound?
Answer: 79

Question: What about the “Skin Visual Classification” value ([2]; trial MC-11/99, 45 mg/kg feed) of the same compound?
Answer: ++

Question: What about the “Shanks Chroma C*ab % of Controls” value ([2]; trial MC-24/98, 30 mg/kg feed) of the same compound?
Answer: 137%

Question: And the “Shanks Chroma C*ab Value” ([2]; trial MC-24/98, 30 mg/kg feed)?
Answer: 71

Question: What about the “Shanks Color Hue h*ab % of Controls” value ([2]; trial MC-24/98, 30 mg/kg feed) of the same compound?
Answer: 93%

Question: What about the “Shanks Color Hue h*ab Value” ([2]; trial MC-24/98, 30 mg/kg feed) of the same compound?
Answer: 80

Question: And the “Shanks Visual Classification” value ([2]; trial MC-24/98, 30 mg/kg feed)?
Answer: +

Question: What about the “Skin Chroma C*ab % of Controls” value ([2]; trial MC-24/98, 30 mg/kg feed) of the same compound?
Answer: 119%

Question: And the “Skin Chroma C*ab Value” ([2]; trial MC-24/98, 30 mg/kg feed)?
Answer: 39

Question: And the “Skin Color Hue h*ab % of Controls” value ([2]; trial MC-24/98, 30 mg/kg feed)?
Answer: 102%

Question: What about the “Skin Color Hue h*ab Value” ([2]; trial MC-24/98, 30 mg/kg feed) of the same compound?
Answer: 82

Question: And the “Skin Visual Classification” value ([2]; trial MC-24/98, 30 mg/kg feed)?
Answer: +

Question: What about the “chroma C*a*b* values in the skin and in the shanks” value ([2]; versus the control) of the same compound?
Answer: substantially enhanced

Question: And the “color hue h*a*b* in the skin and in the shanks” value ([2]; versus the control)?
Answer: not significantly changed

Question: What about the “effectiveness in terms of concentration in the skin, and color intensity (chroma C*a*b*) in the skin and shanks” value ([2]; versus the control) of the same compound?
Answer: significantly more effective
